In assay [1] the target is T1, Y2 receptor (Homo sapiens, UniProt P49146).
T1 sequence (P49146 1-381): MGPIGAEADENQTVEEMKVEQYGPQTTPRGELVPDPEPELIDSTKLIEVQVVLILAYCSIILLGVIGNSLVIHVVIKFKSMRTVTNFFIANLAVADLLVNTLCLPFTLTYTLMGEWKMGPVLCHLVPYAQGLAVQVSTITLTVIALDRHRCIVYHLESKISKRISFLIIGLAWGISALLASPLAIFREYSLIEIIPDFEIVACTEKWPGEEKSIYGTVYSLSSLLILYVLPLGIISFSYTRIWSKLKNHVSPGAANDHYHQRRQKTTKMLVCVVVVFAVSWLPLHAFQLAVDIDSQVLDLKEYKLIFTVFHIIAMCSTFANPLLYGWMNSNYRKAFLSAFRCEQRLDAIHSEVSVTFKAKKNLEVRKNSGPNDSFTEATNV
It counts as binding.

For assay [2], the target named is T2, Y1 receptor 6A (Rattus norvegicus, UniProt P21555, S352A/S359A/S362A/T353A/T356A/T361A).
T2 sequence (P21555 1-382 S352A/T353A/T356A/S359A/T361A/S362A): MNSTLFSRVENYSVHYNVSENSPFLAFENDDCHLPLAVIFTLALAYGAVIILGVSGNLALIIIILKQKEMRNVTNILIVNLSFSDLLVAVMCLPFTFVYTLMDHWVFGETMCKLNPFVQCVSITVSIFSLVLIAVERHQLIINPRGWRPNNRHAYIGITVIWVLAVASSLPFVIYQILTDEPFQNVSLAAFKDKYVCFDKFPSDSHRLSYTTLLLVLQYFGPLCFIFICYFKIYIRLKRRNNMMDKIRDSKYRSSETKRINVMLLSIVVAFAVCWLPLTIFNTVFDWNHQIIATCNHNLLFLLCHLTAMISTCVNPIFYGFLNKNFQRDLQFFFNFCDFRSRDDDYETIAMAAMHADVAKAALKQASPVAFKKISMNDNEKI
Description: [125I]PYY competition binding, Y1 6A/βarr2 membranes.

The target in assay [3] is T3, Y1 receptor TSA (T361A, S362A) (Rattus norvegicus, UniProt P21555, S362A/T361A).
T3 sequence (P21555 2-382 T361A/S362A): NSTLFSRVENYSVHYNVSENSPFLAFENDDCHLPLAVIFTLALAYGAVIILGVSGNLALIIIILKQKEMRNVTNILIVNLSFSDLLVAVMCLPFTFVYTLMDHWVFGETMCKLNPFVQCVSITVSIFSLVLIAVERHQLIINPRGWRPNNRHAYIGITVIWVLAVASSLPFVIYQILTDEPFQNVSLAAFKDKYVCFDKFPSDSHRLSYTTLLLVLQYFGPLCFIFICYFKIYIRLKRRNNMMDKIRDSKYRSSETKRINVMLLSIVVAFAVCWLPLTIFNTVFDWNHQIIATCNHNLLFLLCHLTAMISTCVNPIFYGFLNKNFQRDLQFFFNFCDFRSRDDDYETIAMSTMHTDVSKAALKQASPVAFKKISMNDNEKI
The assay can be described thus: [125I]PYY competition binding, Y1 TSA/βarr2 membranes.

In assay [4] the target is T4, Y1 receptor T356A (Rattus norvegicus, UniProt P21555, T356A).
T4 sequence (P21555 2-382 T356A): T3 sequence (P21555 2-382 T361A/S362A) with T355A, A360T, A361S
Description: [125I]PYY competition binding, Y1 T356A/βarr2 membranes.

Assay [5] concerns the target T5, Y1 receptor STA, TSA (Rattus norvegicus, UniProt P21555, S352A/S362A/T353A/T361A).
T5 sequence (P21555 2-382 S352A/T353A/T361A/S362A): T3 sequence (P21555 2-382 T361A/S362A) with S351A, T352A
The assay can be described thus: [125I]PYY competition binding, Y1 STA, TSA/βarr2 membranes.

Setting [6] is: inhibition of [125I]PYY specific binding.

Each structure is given as a SMILES string. Residue numbers refer to the chain shown, from its start.

Consider `Nc1nc2c(ncn2[C@@H]2O[C@H](COP(=O)(O)OP(=O)(O)OP(O)(O)=S)[C@@H](O)[C@H]2O)c(=O)[nH]1` [GTPγS, guanosine-5′-O-(3-thio)triphosphate], for which the “GTPγS 1 µM inhibition (%), Y2” value in assay [1] (1 µM GTPγS) was 73.8 ± 3.5%. Further, the “GTPγS pIC50, Y2” value in assay [1] (setting [6]) is listed as 9.19 ± 0.11. In assay [2] (1 µM GTPγS), the “GTPγS 1 µM inhibition (%), Y1 6A” value is reported as 63.2 ± 1.2%. Moreover, the “GTPγS pIC50, Y1 6A” value in assay [2] (setting [6]) is recorded as 9.04 ± 0.02. Further, the “GTPγS 1 µM inhibition (%), Y1 TSA” value in assay [3] (1 µM GTPγS) was 51.4 ± 4.9%. In addition, in assay [3] (setting [6]), the “GTPγS pIC50, Y1 TSA” value was 9.40 ± 0.10. In addition, the “GTPγS 1 µM inhibition (%), Y1 T356A” value in assay [4] (1 µM GTPγS) was 48.3 ± 4.7%. For the same molecule, the “GTPγS pIC50, Y1 T356A” value in assay [4] (setting [6]) was 8.97 ± 0.17. Further, in assay [5] (1 µM GTPγS), the “GTPγS 1 µM inhibition (%), Y1 STA, TSA” value came out at 58.2 ± 5.0%. For the same molecule, in assay [5] (setting [6]), the “GTPγS pIC50, Y1 STA, TSA” value stood at 9.03 ± 0.26.

The record behind these values is publication PMC2901518 (British Journal of Pharmacology, 2010).
